Experimental findings from ChEMBL document CHEMBL1136440, “Design and synthesis of novel RXR-selective modulators with improved pharmacological profile” (Bioorg Med Chem Lett, 2003) are described below.

“And” between values parts separate entries of the source, which are not always exact repeats. Equal entries are not always repeated. A value given as a limit tells only on which side of the number the result lay.

What is called Tmax is the time from dosing to the highest level. Usually Cmax stands for the maximum level reached in the sampled fluid or tissue. One may read the AUC(0-t) as the area under the concentration-time curve up to a stated or last time point. Read a low AUC(0-t) as less exposure. One may read the IC50 as the midpoint of a concentration-inhibition curve. Lower therefore signals greater potency. In general, Ki refers to a measure of affinity in units of concentration, obtained from inhibition or displacement. High values mean lower affinity, low ones higher affinity. For orientation: EC50 means the concentration needed to bring the measured effect to its halfway point. Read a low EC50 as a more potent agent.

A short description of data set [1]: Tmax value in IRC mice. Format: ADME, organism-based. Particulars: mouse, in vivo.
A short description of data set [2]: Cmax value in IRC mice. Format: ADME, organism-based. Particulars: mouse, in vivo.
A short description of data set [3]: Area under curve at 0-8 hr in IRC mice after peroral administration. Particulars: mouse, in vivo, po. Format: ADME, organism-based. Set-up: time < 8 hr, route oral.
The target in data set [4] is T1, Retinoic acid receptor RXR-alpha (Homo sapiens, UniProt P19793).
T1 sequence (P19793 whole entry): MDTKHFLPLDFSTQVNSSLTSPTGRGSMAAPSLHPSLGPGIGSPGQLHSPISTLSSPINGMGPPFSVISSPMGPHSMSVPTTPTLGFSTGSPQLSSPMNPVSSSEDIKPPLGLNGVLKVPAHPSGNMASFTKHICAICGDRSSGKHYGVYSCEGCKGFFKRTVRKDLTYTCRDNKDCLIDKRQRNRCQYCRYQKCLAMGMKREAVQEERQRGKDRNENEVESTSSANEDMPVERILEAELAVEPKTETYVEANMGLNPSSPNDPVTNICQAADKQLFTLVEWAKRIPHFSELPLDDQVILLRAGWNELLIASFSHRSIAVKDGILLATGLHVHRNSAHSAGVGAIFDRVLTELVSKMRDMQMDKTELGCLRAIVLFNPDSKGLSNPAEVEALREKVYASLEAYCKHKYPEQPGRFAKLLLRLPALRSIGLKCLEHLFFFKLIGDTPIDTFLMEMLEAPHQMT
Nature of the data set: In vitro antagonist activity against RXR alpha in CV-1 cells. Format: functional, cell-based, Cercopithecidae.

In data set [5] the target is T2, Retinoic acid receptor alpha (Homo sapiens) (UniProt P10276).
T2 sequence (whole entry): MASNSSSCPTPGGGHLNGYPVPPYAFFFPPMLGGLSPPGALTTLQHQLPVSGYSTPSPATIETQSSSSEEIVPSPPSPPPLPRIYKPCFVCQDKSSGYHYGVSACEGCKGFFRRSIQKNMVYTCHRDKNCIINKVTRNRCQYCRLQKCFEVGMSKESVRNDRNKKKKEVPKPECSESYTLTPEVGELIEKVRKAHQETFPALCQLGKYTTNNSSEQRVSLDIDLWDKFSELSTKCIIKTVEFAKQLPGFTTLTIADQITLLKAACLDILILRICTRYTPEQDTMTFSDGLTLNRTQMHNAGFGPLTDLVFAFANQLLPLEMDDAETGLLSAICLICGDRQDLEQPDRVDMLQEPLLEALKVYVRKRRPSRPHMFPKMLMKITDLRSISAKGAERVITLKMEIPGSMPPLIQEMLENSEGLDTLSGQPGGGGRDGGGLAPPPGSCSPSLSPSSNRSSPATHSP
Nature of the data set: Agonist synergy against RAR alpha was tested along with 3 nM TTNPB. Particulars: Cercopithecidae. Format: functional.

The target in data set [6] is T3, Retinoic acid receptor beta (Homo sapiens, UniProt P10826).
T3 sequence (P10826 whole entry): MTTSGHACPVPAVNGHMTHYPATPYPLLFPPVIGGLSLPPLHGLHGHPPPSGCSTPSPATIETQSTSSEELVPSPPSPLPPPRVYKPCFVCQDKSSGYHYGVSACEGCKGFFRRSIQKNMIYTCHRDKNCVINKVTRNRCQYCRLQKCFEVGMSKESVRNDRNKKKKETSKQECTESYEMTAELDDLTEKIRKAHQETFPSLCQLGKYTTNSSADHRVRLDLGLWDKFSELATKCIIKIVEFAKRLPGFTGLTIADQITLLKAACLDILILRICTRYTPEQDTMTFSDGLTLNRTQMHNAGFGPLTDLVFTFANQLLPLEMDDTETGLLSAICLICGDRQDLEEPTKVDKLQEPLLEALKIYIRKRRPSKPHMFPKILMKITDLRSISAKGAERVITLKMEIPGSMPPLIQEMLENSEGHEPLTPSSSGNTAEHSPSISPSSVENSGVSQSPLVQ
Nature of the data set: Binding affinity against RAR beta receptor using [3H]ATRA as radioligand in CV-1 cells. Format: cell-based, Cercopithecidae.

Data set [7] deals with T4, Retinoic acid receptor RXR-beta (Homo sapiens, UniProt P28702).
T4 sequence (P28702 whole entry): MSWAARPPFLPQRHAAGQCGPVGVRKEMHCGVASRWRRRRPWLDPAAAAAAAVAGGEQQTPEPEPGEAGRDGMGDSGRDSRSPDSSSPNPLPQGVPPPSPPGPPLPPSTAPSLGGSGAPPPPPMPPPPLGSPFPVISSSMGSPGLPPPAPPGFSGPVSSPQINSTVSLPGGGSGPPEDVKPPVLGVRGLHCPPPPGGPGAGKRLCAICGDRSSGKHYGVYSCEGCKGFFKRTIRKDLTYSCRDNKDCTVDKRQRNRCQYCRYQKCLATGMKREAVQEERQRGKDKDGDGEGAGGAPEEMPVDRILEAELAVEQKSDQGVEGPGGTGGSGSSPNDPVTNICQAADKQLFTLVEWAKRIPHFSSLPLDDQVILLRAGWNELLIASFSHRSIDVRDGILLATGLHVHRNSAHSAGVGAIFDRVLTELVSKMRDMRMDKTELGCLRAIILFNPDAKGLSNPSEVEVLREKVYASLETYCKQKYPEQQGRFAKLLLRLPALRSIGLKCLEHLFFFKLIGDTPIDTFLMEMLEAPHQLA
Nature of the data set: Displacement of [3H]9-cis-RA from RXR beta receptor in CV-1 cells. The format is cell-based, Cercopithecidae. On the technique in general: Loss of bound radioactivity is the signal in a displacement assay; it reports binding, not function.

The target of data set [8] is T5, Retinoic acid receptor alpha (Homo sapiens, UniProt P10276).
T5 sequence (P10276 whole entry): T2 sequence (whole entry)
Nature of the data set: Binding affinity against RAR alpha receptor using [3H]ATRA as radioligand in CV-1 cells. The format is cell-based, Cercopithecidae.

In data set [9] the target is T6, Retinoic acid receptor RXR-gamma (Homo sapiens, UniProt P48443).
T6 sequence (P48443 whole entry): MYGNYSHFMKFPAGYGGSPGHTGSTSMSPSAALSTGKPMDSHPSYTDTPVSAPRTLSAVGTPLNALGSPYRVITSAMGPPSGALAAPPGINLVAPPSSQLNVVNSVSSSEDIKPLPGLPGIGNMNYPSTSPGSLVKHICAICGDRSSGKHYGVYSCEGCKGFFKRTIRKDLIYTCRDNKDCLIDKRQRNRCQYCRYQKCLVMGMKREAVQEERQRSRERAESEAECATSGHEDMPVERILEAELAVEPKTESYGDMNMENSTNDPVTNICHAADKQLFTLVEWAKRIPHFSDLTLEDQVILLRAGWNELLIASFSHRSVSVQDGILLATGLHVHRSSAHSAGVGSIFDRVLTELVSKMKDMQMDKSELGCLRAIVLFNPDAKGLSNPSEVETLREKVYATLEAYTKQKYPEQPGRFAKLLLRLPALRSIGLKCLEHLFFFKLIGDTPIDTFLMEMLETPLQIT
Nature of the data set: Binding affinity against RXR gamma receptor using [3H]9-cis-RA as radioligand in CV-1 cells. Format: cell-based, Cercopithecidae.

The target of data set [10] is T7, Retinoic acid receptor gamma (Homo sapiens, UniProt P13631).
T7 sequence (P13631 whole entry): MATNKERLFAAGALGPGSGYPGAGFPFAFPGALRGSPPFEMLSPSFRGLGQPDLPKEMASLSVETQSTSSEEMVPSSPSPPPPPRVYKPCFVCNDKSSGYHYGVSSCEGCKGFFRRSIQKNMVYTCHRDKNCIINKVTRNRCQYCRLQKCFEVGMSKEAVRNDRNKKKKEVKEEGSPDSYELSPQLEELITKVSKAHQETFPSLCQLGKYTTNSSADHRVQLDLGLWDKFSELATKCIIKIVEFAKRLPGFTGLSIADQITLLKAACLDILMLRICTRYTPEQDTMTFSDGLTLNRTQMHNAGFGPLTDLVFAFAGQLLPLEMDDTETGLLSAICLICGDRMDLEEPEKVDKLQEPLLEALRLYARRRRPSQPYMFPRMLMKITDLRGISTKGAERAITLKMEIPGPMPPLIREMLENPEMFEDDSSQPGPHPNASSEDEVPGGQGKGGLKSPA
Nature of the data set: Binding affinity against RAR gamma receptor using [3H]ATRA as radioligand in CV-1 cells. Format: cell-based, Cercopithecidae.

Data set [11] deals with T8, Peroxisome proliferator-activated receptor gamma (Homo sapiens, UniProt P37231).
T8 sequence (P37231 whole entry): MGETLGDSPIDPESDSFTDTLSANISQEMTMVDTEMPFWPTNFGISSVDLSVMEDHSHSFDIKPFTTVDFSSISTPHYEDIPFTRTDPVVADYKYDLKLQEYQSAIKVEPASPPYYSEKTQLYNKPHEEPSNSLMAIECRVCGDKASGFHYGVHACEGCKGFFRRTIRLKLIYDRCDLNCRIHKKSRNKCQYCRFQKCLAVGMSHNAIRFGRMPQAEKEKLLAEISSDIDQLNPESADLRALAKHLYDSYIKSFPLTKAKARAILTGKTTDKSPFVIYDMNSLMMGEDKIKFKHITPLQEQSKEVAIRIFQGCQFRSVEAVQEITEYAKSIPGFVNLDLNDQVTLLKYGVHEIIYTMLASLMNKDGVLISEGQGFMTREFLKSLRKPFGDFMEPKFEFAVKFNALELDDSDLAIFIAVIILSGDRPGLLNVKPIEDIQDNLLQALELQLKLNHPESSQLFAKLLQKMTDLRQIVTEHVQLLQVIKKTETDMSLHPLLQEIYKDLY
Description: In vitro agonistic activity against PPAR gamma along with 100 nM BRL-49653

Data set [12] addresses T8, Peroxisome proliferator-activated receptor gamma. The source holds these as a separate data set.
Description: In vitro agonist efficacy against PPAR gamma along with 100 nM BRL-49653
Data set [13] addresses T7, Retinoic acid receptor gamma. Nature of the data set: Displacement of [3H]ATRA from RAR gamma receptor in CV-1 cells; […]. The format is cell-based, Cercopithecidae.
For data set [14], the target named is T1, Retinoic acid receptor RXR-alpha. Nature of the data set: biochemical.
Description: Binding affinity against RXR alpha receptor using [3H]9-cis-RA as radioligand in CV-1 cells
The target of data set [15] is T7, Retinoic acid receptor gamma. Nature of the data set: Displacement of [3H]ATRA from RAR gamma receptor expressed in CV-1 cells. Format: cell-based, Cercopithecidae.

As for `CC(/C=C/C(F)=C(/C)c1cc(C(C)(C)C)cc(C(C)(C)C)c1OCC(F)F)=C\C(=O)O`, the Tmax in data set [1] was determined as 3 h. Also, in [2], the highest concentration (Cmax) is 3690 ng/mL and 8.41 µM. In [3], this compound had an AUC(0-t) at 8 h of 17700 ng·h/mL. Besides, the IC50 in data set [4] is 6.8 nM. For the same compound, the Synergy in data set [5] amounted to 1.8 nM. Moreover, the Ki in data set [6] is 5680 nM; in [7], 11.5 nM; in [8], 8300 nM; in data set [9], 13.2 nM; in data set [10], over 10000 nM. The EC50 in [11] worked out at 6.4 nM; in [12] it was 63 nM.

As to `C/C(=C/C=C/C(C)=C/C(=O)O)c1cc(C(C)(C)C)cc(C(C)(C)C)c1OCC(F)F`, the time to peak (Tmax) in [1] came out at 1 h. The maximum concentration (Cmax) in data set [2] was 760 ng/mL and 1.81 µM. In data set [3], this compound displayed an area under the curve AUC(0-t) at 8 h of 3800 ng·h/mL. For the same compound, the inhibition constant Ki is 9510 nM in [6]; 4 nM in data set [7]; 54 nM in data set [8]; 84 nM in data set [9]; over 9510 nM in data set [10].

The compound `C/C(=C/C=C/C(C)=C/C(=O)O)c1cc(-c2ccco2)cc(C(C)C)c1OCC(F)F` yielded an IC50 in data set [4] of 3.6 nM. The Synergy in [5] was found to be 1.2 nM. Moreover, the Ki was over 10000 nM in data set [13] and 3 nM in [14]. Besides, the results for the EC50 in [11] and in data set [12] were 7.4 nM and 37 nM, respectively.

Consider `CCCOc1c(\C(C)=C/C=C/C(C)=C/C(=O)O)cc(C(C)C)cc1C(F)(F)C(F)(F)F`, for which the IC50 in data set [4] turned out to be 10.7 nM. For the same compound, the Synergy in [5] is 9.4 nM. Besides, the Ki in data set [6] is over 10000 nM; in data set [15] it was over 10000 nM; in [7], 9.9 nM; in data set [8] it was over 10000 nM; in data set [9] it was 23.6 nM; in data set [14], 85.8 nM. In addition, the EC50 amounted to 15.1 nM in data set [11] and 29 nM in [12].

`C/C(=C/C=C/C(C)=C/C(=O)O)c1cc(-c2cccc(F)c2)cc(C(C)C)c1OCC(F)F`: in [4], the IC50 was 3.9 nM. Further, the Synergy in [5] stood at 1.6 nM. The Ki in data set [6] is 3600 nM; in [7] it was 7.4 nM; in [8], over 10000 nM; in [9] it was 2.9 nM; in data set [10], over 10000 nM; in [14] it was 1 nM. In addition, the values for the half-maximal effective concentration (EC50) in data set [11] and in [12] were 0.8 nM and 36 nM, respectively.

For `C/C(=C/C=C/C(C)=C/C(=O)O)c1cc(-c2ccc(F)cc2)cc(C(C)C)c1OCC(F)F`, the IC50 in [4] is 2.2 nM. Besides, the Synergy in [5] worked out at 1.1 nM. Further, the Ki was 2110 nM in data set [6]; 3.9 nM in data set [7]; 4550 nM in [8]; 5.6 nM in [9]; over 10000 nM in data set [10]; 0.8 nM in [14]. Further, the EC50 in [11] came out at 1.3 nM; in data set [12], 32 nM.
